Source: article PMC7392643, “Antibiotic fidaxomicin is an RdRp inhibitor as a potential new therapeutic agent against Zika virus” (BMC Medicine, 2020)

Assays:
ZIKV MR766 strain = test: In vitro antiviral assay, plaque assay, ZIKV MR766; format: cell-based; details: Zika virus, 48 h
Description: Various cell lines, including SNB19 (6 × 10^4/well, 10% FBS DMEM), A172 (7 × 10^4/well, 10% FBS DMEM), Vero (6 × 10^4/well 10% FBS DMEM), Huh7 (7 × 10^4/well, 10% FBS DMEM), HUVECs (7 × 10^4/well, 15% FBS M199 medium supplemented with 2 mM L-glutamine, 0.02 mg/mL endothelial cell growth supplement, and 0.05 mg/mL heparin), and A549 (6 × 10^4/well, 5% FBS DMEM), were plated in 12-well plates and allowed to attach overnight, followed by infection with ZIKV (ZG-01 strain or MR766 strain, respectively, at indicated MOI) in the presence of different concentrations of fidaxomicin, ribavirin, or vehicle control for 1 h, followed by two washes with 1 × PBS and incubated with fresh medium (without virus) consisting of corresponding concentrations of the compounds for further 48 h. The cell supernatants were collected to quantify ZIKV infection by plaque assay as previously described [47] or by RT-qPCR.

[1] = in vivo, po; cited from earlier work
[2] = target: T1, ZIKV NS5 full-length protein (Zika virus, UniProt A0A024B7W1); test: SPR (BIAcore) binding to ZIKV NS5 full-length protein
T1 construct: NS5 (amino acids 1 to 903); His tag (8x histidine) (N); made in house; host or cells: Escherichia coli (Rosetta)
Description: (§1) The cDNA fragment of ZIKV (ZG-01 strain) NS5 (amino acids 1 to 903), RdRp (amino acids 272 to 903), or DENV2 NS5 (amino acids 1 to 900) containing an N-terminal His tag sequence was cloned into a pET-30a-mutant vector. For protein expression, the plasmids were transformed into Rosetta™ competent cells (TIANGEN BIOTECH Co., Ltd., Beijing, China), respectively. […] Mass spectrometry was performed by Shanghai Applied Protein Technology Co. Ltd. (Shanghai, China). The concentration of a targeted protein was measured by SDS-PAGE using BSA (Sigma, St. Louis, MO) as a standard.
(§2) Surface plasmon resonance (SPR) experiments were performed in a BIAcore T100 device (BIAcore Inc., Uppsala, Sweden) using CM5 sensor chips (General Electric Company, GE) according to the protocol provided by the manufacturer. Briefly, recombinant ZIKV NS5 protein, RdRp protein, or DENV2 NS5 protein was immobilized on a CM5 chip, respectively. Different concentrations of fidaxomicin or ribavirin were injected at a flow rate of 30 μL/min for 3 min. Subsequently, data were collected for a 3-min association followed by a 20-min dissociation. The chip was regenerated by injecting 10 μL of 15 mM NaOH for 20 s. […] The binding kinetics was analyzed with the software BIAevaluation version 3.1 using a 1:1 Langmuir binding model. The Kd was calculated as previously described.

[3] = tested on: STAT2 degradation induced by NS5; test: Western blotting of STAT2 in 293T cells transfected with ZIKV NS5; format: cell-based, human
Description: Tissue specimens obtained from mice or cells were lysed with RIPA lysis buffer (Millipore, Bedford, MA) containing a cocktail of protease and phosphatase inhibitors (Sigma-Aldrich, St. Louis, MO, USA). Protein concentrations were measured with a bicinchoninic acid (BCA) protein assay (Thermo Fisher Scientific, Rockford, IL, USA). Protein samples were separated by sodium dodecyl sulfate-polyacrylamide gel electrophoresis (SDS-PAGE) and transferred onto a polyvinylidene difluoride (PVDF) membrane. Non-specific antibody binding sites were blocked with 5% non-fat milk in Tris-buffered saline (TBS) (20 mM Tris-HCl [pH 7.6], 135 mM NaCl, and 0.1% Tween 20) for 1 h at room temperature and then incubated with the following primary antibodies: anti-STAT2 (1:1000, sc166201, Santa Cruz Biotechnology, Santa Cruz, CA, USA), anti-ZIKV E (1:1000, BF-1176-56, BioFront Technologies, Tallahassee, USA), anti-ZIKV NS5 (1:1000, BF-6A1-100UG, BioFront), and anti-ZIKV NS3 (1:1000, GTX133309, GeneTex, Alton Pkwy, Irvine, CA, USA). Anti-GAPDH (1:2000, ab181602, Abcam, Cambridge, MA, USA) or mouse anti-GAPDH (1:1000, ab9484, Abcam) was used as a loading control. […] The relative protein level was quantified by densitometry and normalized to GAPDH or mGAPDH level using Image J software (NIH, Bethesda, MD, USA).

DENV2 (NGC) = test: In vitro anti-DENV assay, RT-qPCR; format: cell-based, Dengue-2 virus; details: Dengue virus
[4] = parameters: method as in PMID 22752858; details: rats; cited from earlier work
DENV2 NS5 protein = target: T2, DENV2 NS5 protein (Dengue virus type 2, UniProt P14340); test: SPR (BIAcore) binding to DENV2 NS5 protein; details: qualitative
T2 construct: DENV2 NS5 (amino acids 1 to 900); His tag (N); made in house
Description: as §1, §2

in vitro = details: African green monkey
Description: Cell viability was detected by the 3-(4,5-dimethyl-2-thiazolyl)-2,5-diphenyl-2H-tetrazolium bromide (MTT) assay according to a previously described method [48]. Briefly, cells were seeded in 96-well plates at a density of 1 × 10^4 cells per well and cultured at 37 °C for 24 h, followed by exposure to the serially diluted fidaxomicin or ribavirin separately for 48 h. Cell survival rate was determined by MTT reduction assay according to the manufacturer’s protocol (Invitrogen). The 50% cytotoxic concentration (CC50) was defined as the compound concentration required to inhibit the cell growth by 50% compared with the control assay. The assay was performed in triplicates in three independent experiments.

[5] = tested on: suppression of IFN signaling induced by ZIKV NS5; test: pISRE-Luc luciferase reporter assay in 293T cells; format: cell-based, human; details: RIG-I(N) driven, 30 h treatment
Description: 293T cells were cultured in 24-well plates (~ 1 × 10^5 cells per well) and co-transfected with pISRE-Luc (100 ng) and the plasmid coding for RIG-I (100 ng) together with the ZIKV NS5 plasmid at indicated concentrations. Control pcDNA3.1 vector was added to ensure that the same total amount of DNA was used for each transfection. To normalize for transfection efficiency, 5 ng of the constitutive Renilla luciferase reporter pRL-TK (Promega, San Luis Obispo, CA, USA) was added to each transfection. Six hours after transfection, cells were treated by fidaxomicin at indicated concentration for 30 h, followed by analysis of cell lysates for luciferase activity using the Dual-Luciferase Reporter Assay System Kit (Promega) according to the manufacturer’s protocol.

T1 sequence (A0A024B7W1 2521-3423): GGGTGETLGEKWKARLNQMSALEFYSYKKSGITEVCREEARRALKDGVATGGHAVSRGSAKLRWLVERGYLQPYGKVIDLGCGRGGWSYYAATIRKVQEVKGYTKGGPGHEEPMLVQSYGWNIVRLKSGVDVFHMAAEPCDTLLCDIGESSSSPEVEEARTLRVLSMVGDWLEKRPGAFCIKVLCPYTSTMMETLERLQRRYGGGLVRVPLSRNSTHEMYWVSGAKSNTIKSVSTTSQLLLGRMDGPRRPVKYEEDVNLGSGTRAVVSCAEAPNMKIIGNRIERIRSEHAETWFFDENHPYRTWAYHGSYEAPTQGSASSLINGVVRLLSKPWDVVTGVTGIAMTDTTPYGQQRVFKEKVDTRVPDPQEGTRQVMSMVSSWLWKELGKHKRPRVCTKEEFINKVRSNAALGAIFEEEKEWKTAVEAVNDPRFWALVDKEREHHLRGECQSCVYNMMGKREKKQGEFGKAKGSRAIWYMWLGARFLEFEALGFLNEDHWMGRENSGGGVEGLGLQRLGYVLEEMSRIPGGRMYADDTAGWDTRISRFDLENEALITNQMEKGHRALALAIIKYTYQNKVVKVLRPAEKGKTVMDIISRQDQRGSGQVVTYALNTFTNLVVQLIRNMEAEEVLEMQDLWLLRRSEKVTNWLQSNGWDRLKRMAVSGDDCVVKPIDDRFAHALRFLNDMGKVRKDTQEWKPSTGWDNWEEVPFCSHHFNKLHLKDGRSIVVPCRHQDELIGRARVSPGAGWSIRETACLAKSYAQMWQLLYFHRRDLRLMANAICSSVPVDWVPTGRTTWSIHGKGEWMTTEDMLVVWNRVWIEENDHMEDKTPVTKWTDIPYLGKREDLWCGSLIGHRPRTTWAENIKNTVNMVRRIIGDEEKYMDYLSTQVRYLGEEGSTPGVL

SMILES: CCc1c(Cl)c(O)c(Cl)c(O)c1C(=O)O[C@H]1[C@H](O)[C@H](OC)[C@H](OC/C2=C\C=C\C[C@H](O)/C(C)=C/[C@H](CC)[C@@H](O[C@@H]3OC(C)(C)[C@@H](OC(=O)C(C)C)[C@H](O)[C@@H]3O)/C(C)=C/C(C)=C/C[C@@H]([C@@H](C)O)OC2=O)O[C@@H]1C [Fidaxomicin]
- EC50 (ZIKV MR766 strain; A549 cells): 13 ± 4.4 µM
- EC90 (ZIKV MR766 strain; A549 cells): 42.2 ± 4.6 µM
- EC50 (ZIKV MR766 strain; Huh-7, Huh7 cells): 7.3 ± 2.5 µM
- EC90 (ZIKV MR766 strain; Huh-7, Huh7 cells): 16.2 ± 3.9 µM
- EC50 (ZIKV MR766 strain; SNB-19, SNB19 cells): 6.8 ± 1.2 µM
- EC90 (ZIKV MR766 strain; SNB-19, SNB19 cells): 9.5 ± 1.5 µM
- EC50 (ZIKV MR766 strain; Vero cells): 12.4 ± 3 µM
- EC90 (ZIKV MR766 strain; Vero cells): 45.2 ± 6.2 µM
- absorption through the gastrointestinal tract [1]: minimally absorbed
- plasma concentration [1]: nanogram-per-milliliter scale
- Kd [2]: 18.1 µM
- effect on STAT2 degradation in presence of NS5 [3]: did not prevent the degradation of STAT2
- EC50 (DENV2 (NGC); DENV2, A549 cells): 9.9 ± 2.5 µM
- EC90 (DENV2 (NGC); DENV2, A549 cells): 18 ± 4.2 µM
- EC50 (DENV2 (NGC); DENV2, SNB-19, SNB19 cells): 6.8 ± 1.5 µM
- EC90 (DENV2 (NGC); DENV2, SNB-19, SNB19 cells): 10.6 ± 2.1 µM
- No Observed Adverse Effect Level (NOAEL) [4]: 62.5 mg/kg
- binding to DENV2 NS5 protein (SPR) (DENV2 NS5 protein): affinity
- CC50 at 48 h (in vitro): 126 ± 10.3 µM
- effect on NS5 suppression of ISRE reporter luciferase activity [5]: did not liberate the suppression of IFN signaling
